Here are results for 3 molecules from patent US20150064109A1, “Quantified differentiation and identification of changes in tissue by enhancing differences in blood flow and metabolic activity” (priority 2013, published 2015).

The test system of experiment [1] is breast tissue. Description: Study 2: B.E.S.T. (HDD-enhanced sestamibi) breast imaging, MCA compared with histopathology in 195 individuals. Type of experiment: in vivo, human. Particulars: mean ± SD; for MCA quantitative counts, Cancer: breast cancer (n=15); for MCA quantitative counts, Atypia (Pre-cancerous): cellular atypia (15 individuals); for MCA quantitative counts, Inflammatory States: inflammatory changes (n=77); for MCA quantitative counts, Normal: normal breast tissue (n=88). The text has this:
Tissue samples were obtained either through ductoscopy, fine needle aspiration or open biopsy and were interpreted by pathologists without knowledge of the sestamibi image results. Results were interpreted as being normal, inflammatory (including trauma, injury, infection, fibrocystic disease, radiation exposure and subsequent injury), atypia (with increasing order of cellular change progressing from hyperplasia to metaplasia/atypia to ductal carcinoma in situ) and cancer.
In a second study, one hundred and ninety five (195) (4 men, 191 women) individuals were studied using the enhanced (HDD) imaging approach. The study included four men having detectable breast lumps and 191 women, including 58 seeking additional information regarding breast disease concerns, and 133 with breast lumps and/or abnormal mammograms. The results of this study were also compared with biopsy data.
(§1) Subjects arrive in a fasting state 15-30 minutes prior to the study. An 18-20 gauge intravenous catheter was placed either in the right antebrachium, or in the left antebrachium. The IV was placed in the contralateral arm if a specific breast was the breast in question. […] The catheter was flushed with 10-20 cc of normal saline immediately after the HDD had been given to assure introduction of all of the HDD into the venous system. […] Anterior images were obtained with the patient in a supine position.
(§2) An example of the blue-green format is shown in FIG. 2a, juxtaposed with resting images.
Following the image reconstruction and presentation of each breast image, the region of greatest maximal activity (MCA) was determined and “quantified.” MCA is a measure of detected radiation (gamma) emission acquired by the SPECT camera during the imaging process and reflects the amount of isotope present at any given time within the tissue of interest. See Fleming R M, Dooley W C, Boyd L B, Kubovy C, “Breast Enhanced Scintigraphy Testing (B.E.S.T.)—Increased accuracy in detecting breast cancer accomplished by combining breast and cardiac imaging,” 48th Annual Scientific Session of the Society of Nuclear Medicine, Toronto, Ontario, Canada, 26 Jun. 2001, the disclosure of which is incorporated herein by this reference. […] All readings and determination of MCA were determined for each breast prior to any knowledge of clinical, mammographic or pathologic information, which could in any way bias the results. These procedures were performed at a recognized Center of Excellence for Nuclear Procedures under the direct supervision of a physician Boarded in Nuclear Imaging.
The outcomes of histopathologic specimens were compared with the MCA derived from sestamibi imaging. Descriptive statistical analysis of the MCAs were determined including mean±standard deviations and confidence intervals (CI) for the mean. Group comparisons were made using two-tailed t-tests to determine statistical differences defined as p-values of ≦0.05. Graphic representation of the means is shown for comparison purposes as well as raw data comparison for the histopathologic categories.

The subject of experiment [2] is breast tissue. Description: Study 1: sestamibi breast imaging, maximal count activity (MCA) with Miraluma, SDD and HDD (B.E.S.T.) in ten women. Type of experiment: in vivo, human. Particulars: for MCA counts, Cancer: breast cancer tissue; for MCA counts, Inflamatory States: inflammatory breast tissue; for tissue differentiation: outcome in words, referring to FIG. 3 and Table 1. As for the experimental part: Two sestamibi imaging studies were conducted. […] The results were also compared with biopsy data. All 10 women in the study had either an abnormality on mammography or a detectable lump on physical examination.
Subjects undergoing breast imaging arrived in the fasting state 15-30 minutes prior to the study. […] The IV was placed in the contralateral arm if there is a specific question regarding a specific breast. Sestamibi was administered intravenously four minutes into the study followed by a 10-20 cc normal saline flush to assure delivery of the isotope into the venous system, with imaging of the breast beginning ten minutes into the study. A SPECT camera was positioned in a stationary (planar) position for each of the images.
Breast imaging began with the patient placed in a prone position on top of a 6-inch foam pad designed to enhance the comfort of the patient while improving breast imaging. Each side of the 6-inch pad had breast inserts held in place by hook and loop-type adhesive strips, which were removed allowing each breast to be positioned through the openings in a dependent manner without breast compression. Planar breast imaging began with the BrQL breast (lateral view of breast in question or the right breast if neither breast was specifically suspected of having an abnormality), then the BrCL breast (lateral view of the breast contralateral to BrQL). Patients were then placed on their back for the anterior (BrAS) image of both breasts. Any areas of special concern, PO BrQ1 (posterior oblique view of 1st breast noted to have abnormal activity on initial views) and PO BrQ2 (posterior oblique view of the other breast if its activity is abnormal) were then imaged.
All images were acquired while the patient was prone, except for the anterior (BrAS) image, which was obtained while the patient was supine.
Breast image acquisition and reconstruction was performed using a Siemens orbiter Single Photon Emission Computed Tomography (SPECT) camera with 75 photomultiplier tubes (PMTs) and a 128 by 128 matrix, available from Siemens Medical Solutions, Malvern, Pa. The images were acquired with the camera head in a stationary (planar) position. The camera, computer and software providing quantification of maximal count activity (MCA) were supplied by NC Systems of Boulder, Colo. A low-energy high-resolution (LEHR) collimator was used providing a resolution of 3.4 mm.
as §1, §2
Following the image reconstruction and presentation of each breast image, the region of greatest maximal activity (MCA) was determined and “quantified.” MCA is a measure of detected radiation (gamma) emission acquired by the SPECT camera during the imaging process and reflects the amount of isotope present at any given time within the tissue of interest. See Fleming R M, Dooley W C, Boyd L B, Kubovy C, “Breast Enhanced Scintigraphy Testing (B.E.S.T.)—Increased accuracy in detecting breast cancer accomplished by combining breast and cardiac imaging,” 48th Annual Scientific Session of the Society of Nuclear Medicine, Toronto, Ontario, Canada, 26 Jun. 2001, the disclosure of which is incorporated herein by this reference. […] All readings and determination of MCA were determined for each breast prior to any knowledge of clinical, mammographic or pathologic information, which could in any way bias the results.

The subject of the next experiment is mitochondria. The conditions noted are these: energy dependent manner; cited from earlier work.

For the molecule `OCCN(CCO)c1nc(N2CCCCC2)c2nc(N(CCO)CCO)nc(N3CCCCC3)c2n1` [HDD/B.E.S.T. ©, dipyridamole], in the experiment with breast tissue [1] (listed as B.E.S.T. ©), the “MCA quantitative counts, Cancer” value turned out to be 445.3 ± 83.3 counts; the “MCA quantitative counts, Atypia (Pre-cancerous)” value stood at 307.7 ± 29.3 counts; the “MCA quantitative counts, Inflammatory States” value was found to be 218.0 ± 40.3 counts; the “MCA quantitative counts, Normal” value was 145 ± 29.1 counts. In the experiment on breast tissue [1] (listed as B.E.S.T.©), the “MCA quantitative counts, Cancer” value is given as 445.3±83.3 counts; the “MCA quantitative counts, Atypia (Pre-cancerous)” value was found to be 307.7±29.3 counts; the “MCA quantitative counts, Inflammatory States” value worked out at 218.0±40.3 counts; the “MCA quantitative counts, Normal” value is 145.0±29.1 counts. Moreover, in the experiment on breast tissue [2] (mean ± SD, Study 1), the “MCA counts, Cancer” value is 442.0 ± 5.7 counts and the “MCA counts, Inflamatory States” value is listed as 228.8 ± 24.0 counts. In addition, in the experiment on breast tissue [2] (mean ± SD, Study 1, listed as B.E.S.T.©), the “MCA counts, Cancer” value turned out to be 442.0±5.7 counts. Also, the “MCA counts, Normal” value with breast tissue [2] (normal breast tissue, mean ± SD, sestamibi 25-30 mCi iv, Study 1) turned out to be 125.5 ± 31.5 counts. For the same molecule, the tissue differentiation result with breast tissue [2] (listed as HDD) is listed as “statistically significant at differentiating tissue types”.
Regarding `[99Tc+].[C-]#[N+]CC(C)(C)OC.[C-]#[N+]CC(C)(C)OC.[C-]#[N+]CC(C)(C)OC.[C-]#[N+]CC(C)(C)OC.[C-]#[N+]CC(C)(C)OC.[C-]#[N+]CC(C)(C)OC` [sestamibi, Technetium-99m hexakis 2-methoxyisobutylisonitrile], the “sestamibi taken up by mitochondria” value in the experiment on mitochondria is “over 90%”.
In the case of `OCCN(CCO)c1nc(N2CCCCC2)c2nc(N(CCO)CCO)nc(N3CCCCC3)c2n1` [SDD, dipyridamole], in the experiment with breast tissue [2] (mean ± SD, Study 1), the “MCA counts, Cancer” value is on record as 285.8 ± 17.0 counts and the “MCA counts, Inflamatory States” value came out at 183.5 ± 19.0 counts. Moreover, the tissue differentiation result in the experiment with breast tissue [2] is “useless in tissue differentiation”.
